Measurements reported in ChEMBL document CHEMBL1201862, “PubChem BioAssay data set” (2004).
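Five concentrations, 48 hours, 96-well plates. GI50 is the concentration that inhibits growth by half.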 Active and inactive are the calls of the source. Cut-off read from the data, not from the text of the source: active = GI50 up to about 1.1 µM and inactive = higher.

Experiments:
Test in all cases: DTP human tumour cell line panel, 48 h
786-0 = tested on: 786-0
EKVX = tested on: EKVX
HCT-116 = tested on: HCT-116
HT-29 = tested on: HT-29
IGROV-1 = tested on: IGROV-1
K562 = tested on: K562
LOX IMVI = tested on: LOX IMVI
MOLT-4 = tested on: MOLT-4
NCI-H226 = tested on: NCI-H226
NCI-H522 = tested on: NCI-H522
PC-3 = tested on: PC-3
RPMI-8226 = tested on: RPMI-8226
RXF 393 = tested on: RXF 393
SF-268 = tested on: SF-268
SF-295 = tested on: SF-295
SK-MEL-28 = tested on: SK-MEL-28
SK-MEL-5 = tested on: SK-MEL-5
U-251 = tested on: U-251
UO-31 = tested on: UO-31

Measured: GI50

Nc1ccc2c(c1)C(=O)c1ccccc1-2
inactive: 786-0 > 100 µM | EKVX 89.7 µM | HCT-116 > 100 µM | HT-29 > 100 µM | IGROV-1 > 100 µM | K562 51.6 µM | LOX IMVI 73.1 µM | MOLT-4 15.7 µM | NCI-H226 > 100 µM | NCI-H522 > 100 µM | PC-3 > 100 µM | RPMI-8226 > 100 µM | RXF 393 > 100 µM | SF-268 > 100 µM | SF-295 > 100 µM | SK-MEL-28 > 100 µM | SK-MEL-5 > 100 µM | U-251 > 100 µM | UO-31 68.2 µM

CC1(C2CCC3(C)OC3C2)CO1 (configuration not stated)
inactive: 786-0 > 100 µM | EKVX > 100 µM | HCT-116 > 100 µM | HT-29 > 100 µM | IGROV-1 > 100 µM | K562 > 100 µM | LOX IMVI > 100 µM | MOLT-4 > 100 µM | NCI-H226 > 100 µM | NCI-H522 > 100 µM | RPMI-8226 > 100 µM | RXF 393 > 100 µM | SF-268 > 100 µM | SF-295 > 100 µM | SK-MEL-28 > 100 µM | SK-MEL-5 > 100 µM | U-251 > 100 µM | UO-31 > 100 µM

COC(=O)[C@H]1C=C[C@@H](C)n2c(=O)c3cc4ccccc4cc3c(=O)n21
inactive: 786-0 > 100 µM | EKVX > 100 µM | HCT-116 > 100 µM | IGROV-1 > 100 µM | K562 > 100 µM | LOX IMVI > 100 µM | MOLT-4 > 100 µM | NCI-H226 > 100 µM | NCI-H522 > 100 µM | RPMI-8226 > 100 µM | RXF 393 > 100 µM | SF-268 > 100 µM | SF-295 > 100 µM | SK-MEL-28 > 100 µM | SK-MEL-5 > 100 µM | U-251 > 100 µM | UO-31 > 100 µM

COc1ccc2ccccc2c1CN1CCOCCOCCN(Cc2c(OC)ccc3ccccc23)CCOCCOCC1
inactive: 786-0 31.8 µM | EKVX > 100 µM | HCT-116 25.1 µM | HT-29 > 20.3 µM | IGROV-1 > 100 µM | K562 > 25.6 µM | LOX IMVI > 68.5 µM | MOLT-4 > 49.8 µM | NCI-H226 99.3 µM | NCI-H522 > 60.5 µM | RPMI-8226 10.8 µM | RXF 393 > 100 µM | SF-268 > 80.5 µM | SF-295 > 100 µM | SK-MEL-28 > 45.2 µM | SK-MEL-5 > 38.9 µM | U-251 > 93.3 µM | UO-31 > 100 µM

Nc1ncnc2c1ncn2[C@@H]1O[C@H](COC(c2ccccc2)(c2ccccc2)c2ccccc2)[C@@H](OC(=S)Oc2ccccc2)[C@@H]1F
inactive: 786-0 4.58 µM | EKVX 12.3 µM | HCT-116 3.81 µM | HT-29 6.67 µM | IGROV-1 3.23 µM | K562 3.34 µM | LOX IMVI 3.88 µM | MOLT-4 2.51 µM | NCI-H226 11.4 µM | NCI-H522 2.24 µM | PC-3 3.88 µM | RPMI-8226 3.49 µM | RXF 393 2.82 µM | SF-268 3.66 µM | SF-295 7.98 µM | SK-MEL-28 15.2 µM | SK-MEL-5 4.89 µM | U-251 10.2 µM | UO-31 4.16 µM

CCCCC(=O)c1ccc2ccccc2c1O
inactive: 786-0 > 100 µM | EKVX 62.1 µM | HCT-116 > 100 µM | HT-29 > 100 µM | IGROV-1 > 100 µM | K562 28.8 µM | LOX IMVI > 100 µM | MOLT-4 84.1 µM | NCI-H226 > 100 µM | PC-3 > 100 µM | RPMI-8226 35.5 µM | RXF 393 99.1 µM | SF-268 > 100 µM | SF-295 > 100 µM | SK-MEL-28 > 100 µM | SK-MEL-5 > 100 µM | U-251 > 100 µM | UO-31 > 100 µM

CCOP(=S)(OCC)Oc1ccc2c(c1)OC(=O)C1(Cl)C2(C)C2(Cl)C(=O)Oc3cc(OP(=S)(OCC)OCC)ccc3C12C (configuration not stated)
inactive: 786-0 21.1 µM | EKVX 24.3 µM | HCT-116 12.3 µM | HT-29 15.5 µM | IGROV-1 17.3 µM | K562 27.3 µM | LOX IMVI 19 µM | MOLT-4 20.9 µM | NCI-H226 15.1 µM | NCI-H522 10.4 µM | RPMI-8226 11.1 µM | RXF 393 11.8 µM | SF-268 6.08 µM | SF-295 14.7 µM | SK-MEL-28 16.5 µM | SK-MEL-5 17 µM | U-251 6.35 µM | UO-31 17.9 µM

Oc1ccc2ccccc2c1/N=N/c1ccsc1
inactive: 786-0 > 100 µM | HCT-116 42.7 µM | HT-29 66.8 µM | IGROV-1 > 100 µM | K562 > 100 µM | LOX IMVI > 100 µM | MOLT-4 > 100 µM | NCI-H226 > 100 µM | NCI-H522 > 100 µM | RPMI-8226 > 100 µM | RXF 393 53.3 µM | SF-268 > 100 µM | SF-295 > 100 µM | SK-MEL-28 > 100 µM | SK-MEL-5 > 100 µM | U-251 > 100 µM | UO-31 > 100 µM

CN(C)NC(=O)NC12CC3CC(CC(C3)C1)C2
inactive: 786-0 > 100 µM | EKVX > 100 µM | HCT-116 > 100 µM | HT-29 > 100 µM | IGROV-1 > 100 µM | K562 > 100 µM | LOX IMVI > 100 µM | MOLT-4 > 100 µM | NCI-H226 > 100 µM | NCI-H522 > 100 µM | RPMI-8226 > 100 µM | RXF 393 > 10 µM | SF-268 > 100 µM | SF-295 > 100 µM | SK-MEL-28 > 10 µM | SK-MEL-5 > 100 µM | U-251 > 100 µM | UO-31 > 100 µM

CC12C(=CC(=O)CC1SCCS(=O)(=O)O)C(C#N)=C(N)N2c1ccc(Cl)c(Cl)c1 (configuration not stated)
inactive: 786-0 > 100 µM | EKVX > 100 µM | HCT-116 > 100 µM | HT-29 > 100 µM | IGROV-1 > 100 µM | K562 > 100 µM | LOX IMVI > 100 µM | MOLT-4 > 100 µM | NCI-H226 > 100 µM | NCI-H522 36 µM | RPMI-8226 > 100 µM | RXF 393 36.8 µM | SF-268 > 100 µM | SF-295 > 100 µM | SK-MEL-28 > 100 µM | SK-MEL-5 > 100 µM | U-251 > 100 µM | UO-31 > 100 µM

Cc1ccc(-n2c3nc(=O)n(C)c(=O)c-3nc3ccccc32)c(C)c1
inactive: 786-0 5.83 µM | EKVX 8.67 µM | HCT-116 11.8 µM | HT-29 3.28 µM | IGROV-1 15.1 µM | K562 16.4 µM | LOX IMVI 12.6 µM | MOLT-4 13.9 µM | NCI-H226 14.9 µM | NCI-H522 15.4 µM | RPMI-8226 12.8 µM | RXF 393 14.6 µM | SF-268 15.4 µM | SF-295 10.7 µM | SK-MEL-5 4.73 µM | U-251 15.8 µM | UO-31 24.3 µM
